Results taken from patent publication US12612424B2, “HPK1 inhibitors and uses thereof” (Regor Pharmaceuticals, Inc., priority 2019, dated 2026).

Tests used:
HPK1 = HPK1 (Homo sapiens, UniProt Q92918); experiment: HPK1 biochemical assay (ADP-GLO Kinase Assay); conditions: B*: testing performed in a first testing facility; read-out: HPK1 IC50 (nM) Relative, B*
How it was run: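 HPK1 (0.6 ng/μL final) activity was followed with MBP substrate and 10 μM ATP in Tris pH 7.5/MgCl2/BSA/DTT buffer, measured by ADP-Glo luminescence. Compounds were tested as 3-fold dilutions from 10 μM. IC50 came from a three-parameter logistic fit, with inhibition normalised to high/low controls.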

JAK3 = biological target: T1, JAK3 (Homo sapiens, UniProt P52333); experiment: JAK3 biochemical assay (ADP-GLO Kinase Assay); conditions: for IC50: B*: testing performed in a first testing facility, read-out: JAK3 IC50 (nM) Relative, B*; for JAKs/HPK1 IC50 Ratio, B*: ratio of JAK3 IC50 to HPK1 IC50, first testing facility
T1 construct: purchased Thermo fisher PV3855
How it was run: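 Human JAK3 (0.78 ng) with 0.2 μg/μL Poly(E4Y1) and 4 μM ATP in 40 mM Tris pH 7.5, 20 mM MgCl2, 0.1 mg/ml BSA, 50 μM DTT, 1% DMSO; 60 min at 25 °C. ADP formed read by ADP-Glo luminescence. 10-dose 3-fold series from 10 μM; IC50 by three-parameter logistic fit.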

Chain of HPK1 (Q92918 whole entry): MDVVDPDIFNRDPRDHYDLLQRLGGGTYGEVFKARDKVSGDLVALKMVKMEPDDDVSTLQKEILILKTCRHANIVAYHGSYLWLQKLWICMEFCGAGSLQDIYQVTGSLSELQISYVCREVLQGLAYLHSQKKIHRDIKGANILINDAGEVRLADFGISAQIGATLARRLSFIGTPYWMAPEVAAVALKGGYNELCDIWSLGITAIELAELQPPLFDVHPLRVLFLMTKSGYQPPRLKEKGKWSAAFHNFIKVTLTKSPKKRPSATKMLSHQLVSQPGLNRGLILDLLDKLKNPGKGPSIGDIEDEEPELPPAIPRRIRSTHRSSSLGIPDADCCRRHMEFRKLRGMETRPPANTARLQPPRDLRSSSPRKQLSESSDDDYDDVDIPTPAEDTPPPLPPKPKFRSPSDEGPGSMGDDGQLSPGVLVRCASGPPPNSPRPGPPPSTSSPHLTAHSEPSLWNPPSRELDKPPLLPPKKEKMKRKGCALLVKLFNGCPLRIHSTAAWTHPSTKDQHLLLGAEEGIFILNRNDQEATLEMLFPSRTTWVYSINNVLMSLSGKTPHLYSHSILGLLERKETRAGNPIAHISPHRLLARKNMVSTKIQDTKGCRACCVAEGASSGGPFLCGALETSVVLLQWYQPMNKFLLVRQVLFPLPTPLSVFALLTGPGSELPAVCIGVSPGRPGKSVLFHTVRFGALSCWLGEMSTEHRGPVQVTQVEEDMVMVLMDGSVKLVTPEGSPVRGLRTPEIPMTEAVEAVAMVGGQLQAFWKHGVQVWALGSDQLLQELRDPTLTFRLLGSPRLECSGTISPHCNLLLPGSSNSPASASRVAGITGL
T1 sequence (P52333 781-1124 limits assumed): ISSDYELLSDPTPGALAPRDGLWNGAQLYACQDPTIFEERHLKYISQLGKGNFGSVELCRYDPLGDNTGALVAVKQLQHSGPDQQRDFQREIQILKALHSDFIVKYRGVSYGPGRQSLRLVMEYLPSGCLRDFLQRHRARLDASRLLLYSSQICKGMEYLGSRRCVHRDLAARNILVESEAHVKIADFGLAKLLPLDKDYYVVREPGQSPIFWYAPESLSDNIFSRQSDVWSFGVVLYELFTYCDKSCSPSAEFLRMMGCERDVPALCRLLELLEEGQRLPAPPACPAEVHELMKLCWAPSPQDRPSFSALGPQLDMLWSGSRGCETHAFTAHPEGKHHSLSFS

SMILES | IC50 (HPK1) [nM] | IC50 (JAK3) [nM] | JAKs/HPK1 IC50 Ratio, B* (JAK3)
COc1cc2c(cc1Nc1ncc(Cl)c(N3CC(c4nn[nH]n4)c4ccccc43)n1)CN(C)CC2 (stereo not drawn) [Example 100, N-(4-(3-(2H-tetrazol-5-yl)indolin-1-yl)-5-chloropyrimidin-2-yl)-6-methoxy-2-methyl-1,2,3,4-tetrahydroisoquinolin-7-amine] | ≤ 100 | 100 to 500 | 200
COc1cc2c(cc1Nc1ncc(Cl)c(N3CC(C(=O)NO)c4ccccc43)n1)CN(C)CC2 (stereo not drawn) [Example 101, 1-(5-Chloro-2-((6-methoxy-2-methyl-1,2,3,4-tetrahydroisoquinolin-7-yl)amino)pyrimidin-4-yl)-N-hydroxyindoline-3-carboxamide] | ≤ 100 | > 1000 | 373
COc1cc2c(cc1Nc1ncc(Cl)c(N3CC(C(=O)N(C)O)c4ccccc43)n1)CN(C)CC2 (stereo not drawn) [Example 102] | ≤ 100 | > 1000 | >2603
CONC(=O)C1CN(c2nc(Nc3cc4c(cc3OC)CCN(C)C4)ncc2Cl)c2ccccc21 (stereo not drawn) [Example 103, 1-(5-Chloro-2-((6-methoxy-2-methyl-1,2,3,4-tetrahydroisoquinolin-7-yl)amino)pyrimidin-4-yl)-N-methoxyindoline-3-carboxamide] | ≤ 100 | 500 to 1000 | 540
COc1cc2c(cc1Nc1ncc(Cl)c(N3CC(C(=O)O)c4cc(F)ccc43)n1)CN(C)CC2 (stereo not drawn) [Example 104] | ≤ 100 | ≤ 100 | 45
COc1cc2c(cc1Nc1ncc(Cl)c(N3CC(C(=O)O)c4ccc(F)cc43)n1)CN(C)CC2 (stereo not drawn) [Example 105] | ≤ 100 | 100 to 500 | 140
COc1ccc2c(c1)N(c1nc(Nc3cc4c(cc3OC)CCN(C)C4)ncc1Cl)CC2C(=O)O (stereo not drawn) [Example 107, 1-(5-Chloro-2-((6-methoxy-2-methyl-1,2,3,4-tetrahydroisoquinolin-7-yl)amino)pyrimidin-4-yl)-6-methoxyindoline-3-carboxylic acid] | ≤ 100 | > 1000 | 2200
COc1cc2c(cc1Nc1ncc(Cl)c(N3CC(C(=O)O)c4c(OC)cccc43)n1)CN(C)CC2 (stereo not drawn) [Example 108, 1-(5-Chloro-2-((6-methoxy-2-methyl-1,2,3,4-tetrahydroisoquinolin-7-yl)amino)pyrimidin-4-yl)-4-methoxyindoline-3-carboxylic acid] | ≤ 100 | > 1000 | 886
COc1cc2c(cc1Nc1ncc(F)c(N3CC(C(=O)O)c4ccccc43)n1)CN(C)CC2 (stereo not drawn) [Example 109, 1-(5-Fluoro-2-((6-methoxy-2-methyl-1,2,3,4-tetrahydroisoquinolin-7-yl)amino)pyrimidin-4-yl)indoline-3-carboxylic acid] | ≤ 100 | 500 to 1000 | 269
COc1cc2c(cc1Nc1ncc(C#N)c(N3CC(C(=O)O)c4ccccc43)n1)CN(C)CC2 (stereo not drawn) [Example 110, 1-(5-Cyano-2-((6-methoxy-2-methyl-1,2,3,4-tetrahydroisoquinolin-7-yl)amino)pyrimidin-4-yl)indoline-3-carboxylic acid] | ≤ 100 | > 1000 | 477
COC(=O)C1CN(c2nc(Nc3cc4c(cc3OC)CCN(C)C4)ncc2C(F)F)c2ccccc21 (stereo not drawn) [Example 112] | ≤ 100 | > 1000 | >3309
COc1cc2c(cc1Nc1ncc(Cl)c(-n3nc(C(=O)O)c4ccccc43)n1)CN(C)CC2 [Example 113] | ≤ 100 | > 1000 | 293
COC(=O)C1CN(c2nc(Nc3cc4c(cc3OC)CCN(C)C4)ncc2Cl)c2ccccc21 (stereo not drawn) [Example 115, Methyl 1-(5-chloro-2-((6-methoxy-2-methyl-1,2,3,4-tetrahydroisoquinolin-7-yl)amino)pyrimidin-4-yl)indoline-3-carboxylate] | ≤ 100 | > 1000 | 1275
COC(=O)C1(C)CN(c2nc(Nc3cc4c(cc3OC)CCN(C)C4)ncc2Cl)c2ccccc21 (stereo not drawn) [Example 116] | ≤ 100 | > 1000 | 890
COc1cc2c(cc1Nc1ncc(Cl)c(N3CC(C)(C(N)=O)c4ccccc43)n1)CN(C)CC2 (stereo not drawn) [Example 120, 1-(5-Chloro-2-((6-methoxy-2-methyl-1,2,3,4-tetrahydroisoquinolin-7-yl)amino)pyrimidin-4-yl)-3-methylindoline-3-carboxamide] | ≤ 100 | ≤ 100 | 120
COc1cc2c(cc1Nc1ncc(Cl)c(N3CC(C)(C#N)c4ccccc43)n1)CN(C)CC2 (stereo not drawn) [Example 121, 1-(5-Chloro-2-((6-methoxy-2-methyl-1,2,3,4-tetrahydroisoquinolin-7-yl)amino)pyrimidin-4-yl)-3-methylindoline-3-carbonitrile] | ≤ 100 | ≤ 100 | 50
CNC(=O)C1(C)CN(c2nc(Nc3cc4c(cc3OC)CCN(C)C4)ncc2Cl)c2ccccc21 (stereo not drawn) [Example 122] | ≤ 100 | ≤ 100 | 100
COc1cc2c(cc1Nc1ncc(Cl)c(N3CC(C)(CO)c4ccccc43)n1)CN(C)CC2 (stereo not drawn) [Example 123] | ≤ 100 | ≤ 100 | 60

SMILES | IC50 (HPK1) [nM] | IC50 (JAK3) [nM] | JAKs/HPK1 IC50 Ratio, B* (JAK3)
COc1cc2c(cc1Nc1ncc(Cl)c(N3CC(C)(C(=O)O)c4cc(F)ccc43)n1)CN(C)CC2 (stereo not drawn) [Example 125] | ≤ 100 | ≤ 100 | 6
COc1cc2c(cc1Nc1ncc(Cl)c(N3CC(C)(C(=O)O)c4ccc(F)cc43)n1)CN(C)CC2 (stereo not drawn) [Example 126] | ≤ 100 | ≤ 100 | 9
COc1cc2c(cc1Nc1ncc(Cl)c(N3CC(CC(=O)O)c4ccccc43)n1)CN(C)CC2 (stereo not drawn) [Example 128] | ≤ 100 | 100 to 500 | 280
COc1cc2c(cc1Nc1ncc(Cl)c(-n3cc(CC(=O)O)c4ccccc43)n1)CN(C)CC2 [Example 129] | ≤ 100 | 500 to 1000 | 640
COc1cc2c(cc1Nc1ncc(Cl)c(-n3cc(CC(=O)OC(C)C)c4ccccc43)n1)CN(C)CC2 [Example 130, Isopropyl 2-(1-(5-chloro-2-((6-methoxy-2-methyl-1,2,3,4-tetrahydroisoquinolin-7-yl)amino)pyrimidin-4-yl)-1H-indol-3-yl)acetate] | ≤ 100 | > 1000 | >243
COc1cc2c(cc1Nc1ncc(Cl)c(-n3cc(CC(N)=O)c4ccccc43)n1)CN(C)CC2 [Example 133] | ≤ 100 | > 1000 | 870
COc1cc2c(cc1Nc1ncc(Cl)c(-n3cc(CC#N)c4ccccc43)n1)CN(C)CC2 [Example 134] | ≤ 100 | 500 to 1000 | 243
COc1cc2c(cc1Nc1ncc(Cl)c(-n3cc(Cc4nn[nH]n4)c4ccccc43)n1)CN(C)CC2 [Example 135, N-(4-(3-((2H-tetrazol-5-yl)methyl)-1H-indol-1-yl)-5-chloropyrimidin-2-yl)-6-methoxy-2-methyl-1,2,3,4-tetrahydroisoquinolin-7-amine] | ≤ 100 | 500 to 1000 | 269
CNC(=O)Cc1cn(-c2nc(Nc3cc4c(cc3OC)CCN(C)C4)ncc2Cl)c2ccccc12 [Example 136] | ≤ 100 | 500 to 1000 | 438
COc1cc2c(cc1Nc1ncc(Cl)c(-n3cc(CC(=O)NCC#N)c4ccccc43)n1)CN(C)CC2 [Example 137] | ≤ 100 | > 1000 | 1304
COc1cc2c(cc1Nc1ncc(Cl)c(-n3cc(CC(=O)O)c4cc(F)ccc43)n1)CN(C)CC2 [Example 138] | ≤ 100 | 100 to 500 | 382
COc1cc2c(cc1Nc1ncc(Cl)c(-n3cc(CC(=O)O)c4ccc(F)cc43)n1)CN(C)CC2 [Example 139] | ≤ 100 | 100 to 500 | 520
COc1cc2c(cc1Nc1ncc(Cl)c(-n3cc(CC(=O)O)c4cc(F)c(F)cc43)n1)CN(C)CC2 [Example 140] | ≤ 100 | 500 to 1000 | 783
COc1cc2c(cc1Nc1ncc(Cl)c(-n3nc(CC(=O)O)c4ccccc43)n1)CN(C)CC2 [Example 141] | ≤ 100 | > 1000 | 541
COc1cc2c(cc1Nc1ncc(Cl)c(-n3cc(C(C)C(=O)O)c4ccccc43)n1)CN(C)CC2 (stereo not drawn) [Example 142] | ≤ 100 | 500 to 1000 | 117
COC(=O)CC1(C)CN(c2nc(Nc3cc4c(cc3OC)CCN(C)C4)ncc2Cl)c2ccccc21 (stereo not drawn) [Example 145] | ≤ 100 | > 1000 | 476
COc1cc2c(cc1Nc1ncc(Cl)c(N3CC(C)(CC(=O)O)c4ccccc43)n1)CN(C)CC2 (stereo not drawn) [Example 146] | ≤ 100 | ≤ 100 | 90
CCOC(=O)CC1(C)CN(c2nc(Nc3cc4c(cc3OC)CCN(C)C4)ncc2Cl)c2ccccc21 (stereo not drawn) [Example 149] | ≤ 100 | > 1000 | >944
